The Kinase Knowledgebase extract (Sharma et al. 2016)
pIC50: −log10 of the molar value.

Biological target: MAPK14;MAPK11;MAPK12 (human) (UniProt Q16539)
Test: Inhibition of p38 Kinase Activity

pIC50 | Compound
> 6.00 | CCCCNc1nc(Nc2cc(C(N)=O)ccc2C)nc(N[C@H]2CCNC2)n1
> 6.00 | CONC(=O)c1ccc(C)c(Nc2nc(NCCn3cccn3)nc(N(C)CC(C)(C)C)n2)c1
> 6.00 | COCCN1CCC(Nc2nc(Nc3cc(C(N)=O)ccc3C)nc(N(C)CC(C)C)n2)C1 (stereo not given)
> 6.00 | CNC(=O)c1ccc(C)c(Nc2nc(N[C@H]3CCNC3)nc(N(C)CC(C)C)n2)c1
> 6.00 | Cc1ccc(C(N)=O)cc1Nc1nc(N[C@H]2CCCC[C@H]2N)nc(N(C)CC(C)C)n1
> 4.52 | CNC(=O)c1ccc(C)c(Oc2nc(NCc3ccccn3)nc(N(C)CC(C)(C)C)n2)c1
> 6.00 | Cc1ccc(C(N)=O)cc1Nc1nc(N[C@H]2CCNC2)nc(N(C)CC2CCCCC2)n1
> 6.00 | CONC(=O)c1ccc(C)c(Nc2nc(N(C)CC(C)(C)C)nc(N3CCCCC3)n2)c1
> 5.00 | CC(CNc1nc(Nc2ccc3ncsc3c2)nc(N2CCN(C(=O)c3ccc(-c4ccccc4)cc3)CC2)n1)c1ccccc1 (stereo not given)
> 6.00 | COC(=O)c1ccc(C)c(Nc2nc(N[C@H]3CCNC3)nc(N(C)CC(C)(C)C)n2)c1
> 5.00 | O=S(=O)(Nc1ncccn1)c1ccc(Nc2nc(Cl)nc(NCCc3ccccc3)n2)cc1
> 6.00 | COc1ncc(CN2CC[C@@H](Nc3nc(Nc4cc(C(N)=O)ccc4C)nc(N(C)CC(C)C)n3)C2)c(OC)n1
> 6.00 | Cc1ccc(C(N)=O)cc1Nc1nc(NCC2(C)CCCC2)nc(N[C@H]2CCNC2)n1
> 6.00 | Cc1ccc(C(N)=O)cc1Nc1nc(NC2CCN(C)C2)nc(N(C)CC(C)C)n1 (stereo not given)
> 5.00 | CC(CNc1nc(Nc2ccc3ncsc3c2)nc(N(C)CCCN(C)C(=O)c2ccco2)n1)c1ccccc1 (stereo not given)
> 6.00 | CCNC(=O)c1ccc(C)c(Nc2nc(N[C@H]3CCNC3)nc(N(C)CC3CCCC3)n2)c1
> 5.00 | CCC(CNc1nc(Cl)nc(Nc2ccc3ncsc3c2)n1)c1ccccc1 (stereo not given)
> 6.00 | Cc1ccc(-c2nc3ccccc3[nH]2)cc1Nc1nc(N[C@@H]2CCNC2)nc(N(C)CC(C)(C)C)n1
> 6.00 | Cc1ccc(C(N)=O)cc1Nc1nc(N[C@@H]2CCNC2)nc(N2CCCC(C(N)=O)C2)n1 (stereo not given in full)
> 5.00 | CC(CNc1nc(Nc2ccc3ncsc3c2)nc(N(C)CCCN(C)C(=O)C2CCOC2)n1)c1ccccc1 (stereo not given)
> 6.00 | CCNC(=O)c1ccc(C)c(Nc2nc(N[C@H]3CCNC3)nc(N(C)CC(C)C)n2)c1
> 6.00 | CONC(=O)c1ccc(C)c(Nc2nc(N[C@H]3CCNC3)nc(N(C)CC(C)(C)C)n2)c1
> 6.00 | CCC[C@@H]1C[C@@H](Nc2nc(Nc3cc(C(N)=O)ccc3C)nc(N(C)CC(C)(C)C)n2)CN1

pIC50 | Compound
> 5.00 | COCC(=O)N1CCN(c2nc(NCC(C)c3ccccc3)nc(Nc3ccc4ncsc4c3)n2)CC1 (stereo not given)
> 6.00 | CC(=O)Nc1ccc(C)c(Nc2nc(NCC(C)(C)C)nc(N[C@H]3CCNC3)n2)c1
> 6.00 | CONC(=O)c1ccc(C)c(Nc2nc(N(C)CC(C)(C)C)cc(N3CCCN(C)CC3)n2)c1
> 6.00 | CONC(=O)c1ccc(C)c(Nc2nc(Cl)nc(N(C)CC(C)(C)C)n2)c1
> 6.00 | Cc1ccc(C(N)=O)cc1Nc1nc(CCC(C)C)nc(N[C@H]2CCNC2)n1
> 4.52 | CNC(=O)c1ccc(C)c(Oc2nc(N[C@@H]3CCNC3)nc(N(C)CC(C)(C)C)n2)c1
> 6.00 | Cc1ccc(C(N)=O)cc1Nc1nc(NC2CCS(=O)(=O)C2)nc(N(C)CC(C)(C)C)n1 (stereo not given)
> 4.52 | CNC(=O)c1ccc(C)c(Sc2nc(NCc3ccccn3)nc(N(C)CC(C)(C)C)n2)c1
> 6.00 | Cc1ccc(CN2CCC(Nc3nc(Nc4cc(C(N)=O)ccc4C)nc(N(C)CC(C)C)n3)C2)c(C)c1 (stereo not given)
> 5.00 | CC(CCCCCCN(C)c1nc(NCC(C)c2ccccc2)nc(Nc2ccc3ncsc3c2)n1)C(N)=O (stereo not given)
> 6.00 | Cc1ccc(CN2CC[C@H](Nc3nc(Nc4cc(C(N)=O)ccc4C)nc(N(C)CC(C)C)n3)C2)c(C)c1
> 5.00 | CCNC(=O)N(C)CCCN(C)c1nc(NCC(C)c2ccccc2)nc(Nc2ccc3ncsc3c2)n1 (stereo not given)
> 6.00 | Cc1c(Cl)cc(C(N)=O)cc1Nc1nc(N[C@H]2CCNC2)nc(N(C)CC(C)C)n1
> 6.00 | Cc1ccc(C(N)=O)cc1Nc1nc(N[C@@H]2CCNC2)nc(N2CCC(C)(C)CC2)n1
> 6.00 | Cc1ccc(C(=O)Nc2cccc(N(C)C)c2)cc1Nc1nc(N[C@H]2CCNC2)nc(N(C)CC(C)C)n1
> 6.00 | Cc1ccc(C(N)=O)cc1Nc1nc(NCC2(c3ccc(Cl)cc3)CC2)nc(N[C@H]2CCNC2)n1
> 6.00 | Cc1ccc(C(=O)Nc2ccccc2)cc1Nc1nc(N[C@H]2CCNC2)nc(N(C)CC(C)(C)C)n1
> 4.52 | CNC(=O)c1ccc(C)c(Sc2nc(N[C@@H]3CCNC3)nc(N(C)CC(C)(C)C)n2)c1
> 4.52 | CN1CCCN(c2nc(Sc3cc(C(N)=O)ccc3F)nc(N(C)CC(C)(C)C)n2)CC1
> 6.00 | Cc1ccc(C(N)=O)cc1Nc1nc(N[C@H]2CONC2=O)nc(N(C)CC(C)(C)C)n1
> 6.00 | Cc1ccc(C(N)=O)cc1Nc1nc(N[C@@H]2CCNC2)nc(-c2cccc(Cl)c2)n1
> 6.00 | Cc1ccc(C(N)=O)cc1Nc1nc(NCCc2ccc(O)cc2)nc(N[C@H]2CCNC2)n1
> 5.00 | CC1(C)C2CCC(CNc3nc(Nc4ccc5ncsc5c4)nc(N4CCN(C(=O)CCC(=O)O)CC4)n3)C1C2 (stereo not given)

pIC50 | Compound
> 6.00 | Cc1ccc(C(N)=O)cc1Nc1nc(N[C@H]2CCN(C(C#N)c3ccccc3)C2)nc(N(C)CC(C)(C)C)n1 (stereo not given in full)
> 6.00 | Cc1ccc(C(N)=O)cc1Nc1nc(N[C@@H]2CCNC2)nc(N2CCc3ccccc3C2)n1
> 6.00 | Cc1ccc(C(N)=O)cc1Nc1nc(N[C@H]2CCNC2)nc(N(C)CC2CCCC2)n1
> 6.00 | Cc1ccc(C(=O)Nc2ccc(F)cc2)cc1Nc1nc(N[C@H]2CCNC2)nc(N(C)CC(C)(C)C)n1
> 6.00 | CONC(=O)c1ccc(C)c(Nc2nc(NCCCn3ccnc3)nc(N(C)CC(C)(C)C)n2)c1
> 6.00 | Cc1cc2c(cc1Cl)C(=O)N2c1nc(N[C@H]2CCNC2)nc(N(C)CC(C)(C)C)n1
> 4.52 | CONC(=O)c1ccc(C)c(Sc2nc(N(C)CC(C)(C)C)nc(N3CCCN(C)CC3)n2)c1
> 5.00 | O=C(O)CCC(=O)N1CCN(c2nc(Nc3ccc4ncsc4c3)nc(N3CCc4ccccc4C3)n2)CC1
> 5.00 | CC(Cc1ccccc1)Nc1nc(Nc2ccc3ncsc3c2)nc(N(C)C)n1 (stereo not given)
> 6.00 | Cc1ccc(C(N)=O)cc1Nc1nc(NC2CCCC2)nc(N(CCO)Cc2ccccc2)n1
> 6.00 | CCONC(=O)c1ccc(C)c(Nc2nc(NC3CCS(=O)(=O)C3)nc(N(C)CC(C)(C)C)n2)c1 (stereo not given)
> 6.00 | Cc1ccc(C(N)=O)cc1Nc1nc(N[C@H]2CCCC[C@H]2NC(=O)CC(C)C)nc(N(C)CC(C)C)n1
> 5.00 | NC(=O)CNc1nc(NCCc2ccccc2)nc(Nc2ccc3ncsc3c2)n1
> 5.00 | COC1CCCC(C(=O)N(C)CCCN(C)c2nc(NCC(C)c3ccccc3)nc(Nc3ccc4ncsc4c3)n2)C1 (stereo not given)
> 5.00 | c1nc2ccc(Nc3nc(N4CCNCC4)nc(N4CCC5CCCCC5C4)n3)cc2s1 (stereo not given)
> 5.00 | C[C@H](CNc1ncnc(Nc2ccc3ncsc3c2)n1)c1ccccc1
> 5.00 | CNc1nc(Nc2ccc3ncsc3c2)nc(N[C@@H](C)C2CCCCC2)n1
> 6.00 | Cc1c(Nc2nc(NC[C@@H]3CC[C@H]4C[C@H]3C4(C)C)nc(N(C)CC(C)C)n2)cccc1C(N)=O
> 6.00 | Cc1ccc(C(N)=O)cc1Nc1nc(N[C@@H]2CCCC[C@H]2N)nc(N(C)CC(C)C)n1
> 6.00 | CCONC(=O)c1ccc(C)c(Nc2nc(NCCO)nc(N(C)CC(C)(C)C)n2)c1
> 6.00 | CCC(C)N1CC[C@@H](Nc2nc(Nc3cc(C(N)=O)ccc3C)nc(N(C)CC(C)C)n2)C1 (stereo not given in full)
> 5.00 | CC1(C)[C@H]2CCC(CNc3nc(Cl)nc(Nc4ccc(S(=O)(=O)Nc5ncccn5)cc4)n3)[C@@H]1C2 (stereo not given in full)
> 5.00 | CSc1nc2ccc(Nc3nc(NC[C@H](C)O)nc(N[C@@H](C)C4CCCCC4)n3)cc2s1

pIC50 | Compound
> 6.00 | Cc1ccc(C(N)=O)cc1Nc1nc(NC2CCNC2)nc(NC2CCN(Cc3ccccc3)C2)n1 (stereo not given)
> 6.00 | CCNC(=O)c1ccc(C)c(Nc2nc(N[C@H]3CCNC3)nc(N(C)CC(C)(C)C)n2)c1
> 6.00 | CCONC(=O)c1ccc(C)c(Nc2nc(N(C)CC(C)(C)C)cc(N3CCCN(C)CC3)n2)c1
> 5.00 | CNCCCN(C)c1nc(NC[C@@H]2CC[C@H]3C[C@@H]2C3(C)C)nc(Nc2ccc3ncsc3c2)n1
> 5.00 | CC1(C)[C@H]2CC[C@H](CNc3nc(Cl)nc(Nc4ccc5ncsc5c4)n3)[C@@H]1C2
> 6.00 | COc1ccccc1NC(=O)c1ccc(C)c(Nc2nc(N[C@H]3CCNC3)nc(N(C)CC(C)(C)C)n2)c1
> 6.00 | Cc1ccc(C(N)=O)cc1Nc1nc(NC2CCN(Cc3ccccc3)C2)nc(N[C@H]2CCNC2)n1 (stereo not given in full)
> 6.00 | CCOC(=O)Nc1ccc(C)c(Nc2nc(NCCN3CCCC3)nc(N(C)CC(C)(C)C)n2)c1
> 6.00 | Cc1ccc(C(=O)Nc2cccc(N(C)C)c2)cc1Nc1nc(N[C@H]2CCNC2)nc(N(C)CC(C)(C)C)n1
> 6.00 | CCCN(C)c1nc(Nc2cc(C(N)=O)ccc2C)nc(N[C@H]2CCNC2)n1
> 6.00 | CCONC(=O)c1ccc(C)c(Nc2nc(N(C)CC(C)(C)C)nc(N3CCCN(C)CC3)n2)c1
> 6.00 | CCCNC(=O)c1ccc(C)c(Nc2nc(O[C@H]3CCNC3)nc(N(C)CC(C)(C)C)n2)c1
> 5.00 | CNCCN(C)c1nc(NCc2ccc(Cl)c(Cl)c2)nc(Nc2ccc3ncsc3c2)n1
> 6.00 | CONC(=O)c1ccc(C)c(Nc2nc(N(C)CCN(C)C)nc(N(C)CC(C)(C)C)n2)c1
> 6.00 | CC1(C)[C@@H]2CC[C@@H](CNc3nc(NC4CCNCC4)nc(N4CCc5ccc([N+](=O)[O-])cc54)n3)[C@H]1C2
> 4.52 | CONC(=O)c1ccc(C)c(Oc2nc(NCc3ccccn3)nc(N(C)CC(C)(C)C)n2)c1
> 5.00 | CC(=O)N1CCN(c2nc(NC[C@@H]3CC[C@H]4C[C@@H]3C4(C)C)nc(Nc3ccc4ncsc4c3)n2)CC1
> 6.00 | Cc1cc2c(cc1Nc1nc(N[C@H]3CCNC3)nc(N(C)CC(C)(C)C)n1)C(=O)NC2
> 6.00 | CONC(=O)c1ccc(C)c(Nc2nc(NCc3ccc(Cl)c(Cl)c3)nc(N(C)CC(C)(C)C)n2)c1
> 6.00 | Cc1ccc(C(N)=O)cc1Nc1nc(N[C@H]2CCN(C(C)c3ccccn3)C2)nc(N(C)CC(C)C)n1 (stereo not given in full)
> 5.00 | COc1ccc(C(=O)N(C)CCCN(C)c2nc(NCC(C)c3ccccc3)nc(Nc3ccc4ncsc4c3)n2)cc1 (stereo not given)
